For one compound, Triple point temperature results are on record in the NIST ThermoML archive (doi:10.1016/j.tca.2011.09.016).

± gives the expanded uncertainty stated by the source.

The conditions of the series: Crystal 2; AC calorimetry.

`O=P([O-])(O)P(=O)([O-])O.[NH4+].[NH4+]` [diammonium hypodiphosphate]: the Triple point temperature is 177.5 ± 0.1 K.
